Results as given in patent US9533977B2, “Oxazolidinone derivative as CETP inhibitor, its preparation method, and pharmaceutical composition comprising the same” (DONG-A ST CO., LTD., priority 2013, dated 2017).
Like-named read-outs stand apart in the source and are kept apart here.

Assays:
Blood HDL-C = Blood HDL-C level in multi-dosed hamsters; format: in vivo, Golden Syrian Hamsters; conditions: oral 10 mg/kg every day for two weeks, blood two hours after the final administration
Experimental: (§1) Each of the compounds of Examples 58, 96, 103 and 125 was orally administered at a dose of 10 mg/kg to 10 7-week-old male Golden Syrian Hamsters per group, every day for two weeks. Two hours after the final administration, blood samples were taken from the hamsters which then underwent an autopsy to analyze blood lipid levels and drug concentrations in blood and tissues (adipose tissues and liver)

CETP [1] = molecular target: T1, CETP (Homo sapiens, UniProt P11597); assay: Inhibitory activity against CETP in human plasma (Roar CETP activity kit, fluorescence); format: biochemical; conditions: plasma from healthy men diluted 1:10 in assay buffer, 37° C., 3 hrs, fluorescence 465/535 nm; read-out: IC50, Inhibition of CETP Activity in Human Plasma
T1 construct: from tissue; host or cells: human plasma from healthy men
T1 sequence (P11597 18-493): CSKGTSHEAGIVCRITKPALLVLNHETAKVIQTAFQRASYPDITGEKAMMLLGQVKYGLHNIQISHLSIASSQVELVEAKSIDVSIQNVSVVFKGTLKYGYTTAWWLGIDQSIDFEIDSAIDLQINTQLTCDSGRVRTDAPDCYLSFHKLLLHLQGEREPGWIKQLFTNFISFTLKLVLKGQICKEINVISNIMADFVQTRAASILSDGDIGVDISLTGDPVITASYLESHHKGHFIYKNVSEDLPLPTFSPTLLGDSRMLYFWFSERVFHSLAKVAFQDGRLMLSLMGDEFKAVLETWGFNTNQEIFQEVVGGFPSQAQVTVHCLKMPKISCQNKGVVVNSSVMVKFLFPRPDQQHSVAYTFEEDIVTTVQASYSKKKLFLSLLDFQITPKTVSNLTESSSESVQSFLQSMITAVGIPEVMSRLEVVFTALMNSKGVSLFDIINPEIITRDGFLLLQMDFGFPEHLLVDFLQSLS
Outline: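 Healthy male human plasma, diluted 1:10, incubated 3 hrs at 37° C with donor/acceptor fluorescent substrates and compound (0.01–10000 nM, DMSO). Fluorescence at ex 465/em 535 nm, background-corrected against no-plasma and no-compound wells; IC50 from sigmoidal fit.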

CETP [2] = assay: Effect on CETP activity in hamster administered with single dose; format: in vivo, Golden Syrian hamsters; conditions: hamsters, single oral dose 100 mg/kg, blood 0.5-24 hrs after administration, compared to pre-treatment
Experimental: Each of the compounds of the Examples was orally administered at a dose of 100 mg/kg to three 7-week-old male Golden Syrian hamsters per group. Blood samples were taken from the retro-orbital plexus before administration and 0.5, 1, 2, 4, 6, 8, and 24 hrs after administration, and measured for blood CETP activity using a Roar CETP activity assay kit (Cat#: RB-CETP, Roar Biomedical Inc.).

[3] = Drug concentration in blood and tissues of hamsters administered with multiple doses; format: in vivo, Golden Syrian Hamsters; conditions: oral 10 mg/kg every day for two weeks; for concentration at 2 h: male, Golden Syrian, hamster, two hours after the final administration
Experimental: as §1

[4] = adipose tissue, read-out: Drug Concentration Adipose Tissue
[5] = blood, read-out: Drug Concentration Blood
[6] = liver, read-out: Drug Concentration Liver Tissue

Row | Compound | Relative Increase HDL-C (%) to VC (Vehicle) (Blood HDL-C) [%] | IC50 (CETP [1]) [nM] | Relative Maximal Inhibition of CETP Activity to Pre-Administration (%) (CETP [2]) | concentration at 2 h [3, 4] [ng/g] | concentration at 2 h [3, 5] [ng/mL] | concentration at 2 h [3, 6] [ng/g] | Distribution between blood, liver and adipose tissues (in words) [3]
1 | CCCN(CC1CCC(CC(=O)O)CC1)c1ncc(C2CC2)nc1CN1C(=O)OC(c2cc(C(F)(F)F)cc(C(F)(F)F)c2)C1C (centres unmarked) [Example 125] | 27 | 40.3 | 56 | – | – | – | –
2 | CCN(c1ncc(-c2c(C)noc2C)nc1CN1C(=O)O[C@H](c2cc(C(F)(F)F)cc(C(F)(F)F)c2)[C@@H]1C)C1CCCCC1 [Example 96, (4S,5R)-5-[3,5-bis(trifluoromethyl)phenyl]-4-methyl-3-({[2-(ethyl)(cyclohexyl)amino]-5-(3,5-dimethyl-isoxazol-4-yl)pyrazin-3-yl}methyl)-oxazolidin-2-one] | 48 | 2 | 56 | 7900 | 309 | 128 | at low levels in blood and liver tissues, but at high levels in adipose tissues
3 | CCN(c1ncc(-c2c(C)noc2C)cc1CN1C(=O)O[C@H](c2cc(C(F)(F)F)cc(C(F)(F)F)c2)[C@@H]1C)C1CCCCC1 [Example 58, (4S,5R)-5-[3,5-bis(trifluoromethyl)phenyl]-4-methyl-3-({[2-(ethyl)(cyclohexyl)amino]-5-(3,5-dimethylisoxazol-4-yl)pyridin-3-yl}methyl)-oxazoliclin-2-one] | 47 | 2.7 | 55 | 10200 | 606 | 415 | at low levels in blood and liver tissues, but at high levels in adipose tissues
4 | CCN(C[C@H]1CC[C@H](CC(=O)O)CC1)c1ncc(N2CCCC2)nc1CN1C(=O)OC(c2cc(C(F)(F)F)cc(C(F)(F)F)c2)[C@@H]1C (some centres unmarked) [Example 103] | 47 | 3.26 | 52 | – | – | – | –
